Measurements as given in US20240115575A1, “PHARMACEUTICAL COMPOSITION OF MULTI-TARGET PROTEIN KINASE INHIBITORS, AND USE THEREOF” (CSPC Zhongqi Pharmaceutical Technology (Shijiazhuang) Co., …, priority 2020, published 2024).

Experiments:
[1] = tested on: human non-small cell lung cancer HCC827; assay: In-vivo anti-tumor test, non-small cell lung cancer model; conditions: orally administered once daily for 30 days
Protocol: (§1) According to the in-vivo anti-tumor test described under Biological Assessment of the Patent Application No. WO 2011/147066, the samples of the salt obtained in Preparation Example 2 were tested (specifically for FLT3-ITD acute myeloid leukemia, non-small cell lung cancer with EGFR activating mutation, and Ph-positive chronic myeloid leukemia, respectively).

[2] = API-excipient compatibility test; type: physicochemical; conditions: 14 days and 28 or 30 days; illumination, 60° C., high humidity; maximum single impurity, total impurity, color
Protocol: The active ingredient (compound of Formula B) was mixed evenly with various excipients mentioned in the present application respectively, and put in 10-ml injection vials. The injection vials were stored for 14 days and 28 days or 30 days under the conditions of an illumination of 4500 lux±500 lux/peripheral humidity, a high temperature of 60° C.±2° C./peripheral humidity, a high humidity of 90%±5% RH, and a temperature of 25° C.±2° C. respectively to detect the impurity content, so as to test the compatibility of the active ingredient with various excipients.

[3] = target: ALK (Homo sapiens, UniProt Q9UM73); assay: Evaluation of the inhibitory activity of kinase; type: biochemical
Protocol: (§2) The samples of the salt obtained in Preparation Example 2 were tested according to the evaluation of the inhibitory activity of kinase described under Biological Assessment of the Patent Application No. WO 2011/147066.

[4] = target: BTK (Homo sapiens, UniProt Q06187); assay: Evaluation of the inhibitory activity of kinase; type: biochemical
Protocol: as §2

[5] = target: MET (Homo sapiens, UniProt P08581); assay: Evaluation of the inhibitory activity of kinase; type: biochemical
MET, sequence (P08581 25-1390): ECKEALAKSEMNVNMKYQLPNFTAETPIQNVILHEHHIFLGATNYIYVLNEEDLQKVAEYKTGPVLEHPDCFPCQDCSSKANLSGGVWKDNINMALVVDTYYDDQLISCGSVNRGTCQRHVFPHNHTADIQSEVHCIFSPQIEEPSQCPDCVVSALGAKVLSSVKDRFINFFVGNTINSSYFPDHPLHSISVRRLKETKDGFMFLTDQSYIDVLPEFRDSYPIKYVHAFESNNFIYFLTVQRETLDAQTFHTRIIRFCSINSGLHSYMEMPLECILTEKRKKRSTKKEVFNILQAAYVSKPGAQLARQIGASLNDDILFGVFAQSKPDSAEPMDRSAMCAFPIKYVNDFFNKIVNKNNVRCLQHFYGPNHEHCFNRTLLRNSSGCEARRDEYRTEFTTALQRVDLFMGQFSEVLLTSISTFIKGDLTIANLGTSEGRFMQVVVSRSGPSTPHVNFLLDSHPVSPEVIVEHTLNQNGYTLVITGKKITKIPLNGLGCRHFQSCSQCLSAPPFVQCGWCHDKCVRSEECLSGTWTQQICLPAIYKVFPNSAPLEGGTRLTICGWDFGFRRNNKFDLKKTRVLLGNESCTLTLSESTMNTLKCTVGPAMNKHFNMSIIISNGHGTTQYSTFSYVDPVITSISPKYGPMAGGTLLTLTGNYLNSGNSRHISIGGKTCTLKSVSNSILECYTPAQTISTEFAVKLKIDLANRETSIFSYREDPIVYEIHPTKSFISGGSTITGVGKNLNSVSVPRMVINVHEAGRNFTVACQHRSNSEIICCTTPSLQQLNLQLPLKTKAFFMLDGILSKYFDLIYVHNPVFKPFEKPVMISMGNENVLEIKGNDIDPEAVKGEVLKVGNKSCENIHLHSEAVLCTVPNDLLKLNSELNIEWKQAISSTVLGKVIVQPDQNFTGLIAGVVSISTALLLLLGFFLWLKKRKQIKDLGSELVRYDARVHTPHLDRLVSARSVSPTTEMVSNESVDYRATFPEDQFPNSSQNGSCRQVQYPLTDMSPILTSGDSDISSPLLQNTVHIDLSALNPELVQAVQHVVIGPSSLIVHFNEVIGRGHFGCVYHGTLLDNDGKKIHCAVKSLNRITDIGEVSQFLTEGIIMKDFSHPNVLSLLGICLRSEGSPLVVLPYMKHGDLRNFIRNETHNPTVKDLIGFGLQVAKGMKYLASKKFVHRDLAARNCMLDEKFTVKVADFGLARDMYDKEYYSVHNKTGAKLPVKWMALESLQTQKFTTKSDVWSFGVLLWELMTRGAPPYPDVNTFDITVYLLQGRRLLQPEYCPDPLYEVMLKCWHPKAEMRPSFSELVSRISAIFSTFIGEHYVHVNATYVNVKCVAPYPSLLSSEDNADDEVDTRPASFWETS
Protocol: as §2

[6] = target: VEGFR2 (Homo sapiens, UniProt P35968); assay: Evaluation of the inhibitory activity of kinase; type: biochemical
VEGFR2, sequence (P35968 20-1356): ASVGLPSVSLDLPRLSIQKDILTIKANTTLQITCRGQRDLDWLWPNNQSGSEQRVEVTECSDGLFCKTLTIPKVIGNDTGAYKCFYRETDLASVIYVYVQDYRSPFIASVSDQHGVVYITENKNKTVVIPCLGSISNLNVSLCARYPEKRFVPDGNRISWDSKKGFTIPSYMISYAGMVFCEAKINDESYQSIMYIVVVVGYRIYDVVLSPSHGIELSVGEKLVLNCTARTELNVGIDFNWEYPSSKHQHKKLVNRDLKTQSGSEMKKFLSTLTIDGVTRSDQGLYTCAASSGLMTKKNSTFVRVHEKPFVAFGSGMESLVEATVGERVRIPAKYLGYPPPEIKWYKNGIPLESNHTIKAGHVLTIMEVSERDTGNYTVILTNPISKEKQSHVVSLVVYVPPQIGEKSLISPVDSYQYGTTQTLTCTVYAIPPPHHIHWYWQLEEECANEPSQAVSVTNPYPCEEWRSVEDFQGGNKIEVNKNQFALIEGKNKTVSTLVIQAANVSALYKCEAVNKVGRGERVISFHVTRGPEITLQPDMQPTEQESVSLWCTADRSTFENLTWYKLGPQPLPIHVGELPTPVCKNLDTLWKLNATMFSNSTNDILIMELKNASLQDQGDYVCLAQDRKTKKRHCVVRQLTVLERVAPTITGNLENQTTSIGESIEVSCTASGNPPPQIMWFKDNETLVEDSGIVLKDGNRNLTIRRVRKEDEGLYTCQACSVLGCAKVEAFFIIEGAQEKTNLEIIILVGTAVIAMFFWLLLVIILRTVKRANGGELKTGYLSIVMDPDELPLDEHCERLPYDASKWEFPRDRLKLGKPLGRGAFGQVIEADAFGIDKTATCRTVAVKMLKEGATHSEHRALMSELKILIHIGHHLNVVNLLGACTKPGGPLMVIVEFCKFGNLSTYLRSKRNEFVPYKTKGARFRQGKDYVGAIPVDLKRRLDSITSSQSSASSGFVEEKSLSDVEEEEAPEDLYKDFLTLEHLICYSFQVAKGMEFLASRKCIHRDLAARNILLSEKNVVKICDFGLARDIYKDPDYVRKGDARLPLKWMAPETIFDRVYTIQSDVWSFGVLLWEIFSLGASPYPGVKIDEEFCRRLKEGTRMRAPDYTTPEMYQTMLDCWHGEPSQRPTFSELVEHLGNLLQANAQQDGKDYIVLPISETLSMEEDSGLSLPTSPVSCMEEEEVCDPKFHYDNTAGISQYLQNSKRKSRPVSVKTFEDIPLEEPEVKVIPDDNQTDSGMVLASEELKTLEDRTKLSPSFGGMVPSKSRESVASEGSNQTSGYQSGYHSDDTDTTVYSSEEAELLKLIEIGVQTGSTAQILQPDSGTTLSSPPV
Protocol: as §2

[7] = target: c-KIT (Homo sapiens, UniProt P10721); assay: Evaluation of the inhibitory activity of kinase; type: biochemical
c-KIT, sequence (P10721 26-976): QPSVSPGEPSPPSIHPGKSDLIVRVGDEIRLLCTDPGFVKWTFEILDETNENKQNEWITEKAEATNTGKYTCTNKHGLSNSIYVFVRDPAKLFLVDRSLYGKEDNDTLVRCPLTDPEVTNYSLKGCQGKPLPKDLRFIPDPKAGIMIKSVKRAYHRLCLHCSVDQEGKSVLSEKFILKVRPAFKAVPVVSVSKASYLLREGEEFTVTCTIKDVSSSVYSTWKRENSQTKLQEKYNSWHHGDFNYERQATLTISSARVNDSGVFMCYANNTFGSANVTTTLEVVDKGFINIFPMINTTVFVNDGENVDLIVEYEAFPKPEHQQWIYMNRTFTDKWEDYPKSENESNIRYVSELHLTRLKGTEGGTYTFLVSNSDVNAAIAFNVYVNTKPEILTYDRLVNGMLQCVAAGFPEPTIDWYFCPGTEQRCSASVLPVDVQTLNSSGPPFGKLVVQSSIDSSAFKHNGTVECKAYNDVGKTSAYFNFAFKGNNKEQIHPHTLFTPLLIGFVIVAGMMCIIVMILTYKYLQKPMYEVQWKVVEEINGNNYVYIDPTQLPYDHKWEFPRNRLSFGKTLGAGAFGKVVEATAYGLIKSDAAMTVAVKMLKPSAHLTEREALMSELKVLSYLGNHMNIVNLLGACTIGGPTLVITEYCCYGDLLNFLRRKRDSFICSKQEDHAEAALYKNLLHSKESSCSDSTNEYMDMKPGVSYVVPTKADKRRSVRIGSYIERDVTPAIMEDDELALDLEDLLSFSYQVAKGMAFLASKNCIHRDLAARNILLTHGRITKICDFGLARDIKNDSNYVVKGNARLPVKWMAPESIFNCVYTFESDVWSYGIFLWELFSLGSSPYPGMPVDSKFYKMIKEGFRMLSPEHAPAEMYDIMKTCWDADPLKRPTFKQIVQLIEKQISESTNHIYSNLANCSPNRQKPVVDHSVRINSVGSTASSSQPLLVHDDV
Protocol: as §2

[8] = target: PDGFRα (Homo sapiens, UniProt P16234); assay: Evaluation of the inhibitory activity of kinase; type: biochemical
PDGFRα, sequence (P16234 24-1089): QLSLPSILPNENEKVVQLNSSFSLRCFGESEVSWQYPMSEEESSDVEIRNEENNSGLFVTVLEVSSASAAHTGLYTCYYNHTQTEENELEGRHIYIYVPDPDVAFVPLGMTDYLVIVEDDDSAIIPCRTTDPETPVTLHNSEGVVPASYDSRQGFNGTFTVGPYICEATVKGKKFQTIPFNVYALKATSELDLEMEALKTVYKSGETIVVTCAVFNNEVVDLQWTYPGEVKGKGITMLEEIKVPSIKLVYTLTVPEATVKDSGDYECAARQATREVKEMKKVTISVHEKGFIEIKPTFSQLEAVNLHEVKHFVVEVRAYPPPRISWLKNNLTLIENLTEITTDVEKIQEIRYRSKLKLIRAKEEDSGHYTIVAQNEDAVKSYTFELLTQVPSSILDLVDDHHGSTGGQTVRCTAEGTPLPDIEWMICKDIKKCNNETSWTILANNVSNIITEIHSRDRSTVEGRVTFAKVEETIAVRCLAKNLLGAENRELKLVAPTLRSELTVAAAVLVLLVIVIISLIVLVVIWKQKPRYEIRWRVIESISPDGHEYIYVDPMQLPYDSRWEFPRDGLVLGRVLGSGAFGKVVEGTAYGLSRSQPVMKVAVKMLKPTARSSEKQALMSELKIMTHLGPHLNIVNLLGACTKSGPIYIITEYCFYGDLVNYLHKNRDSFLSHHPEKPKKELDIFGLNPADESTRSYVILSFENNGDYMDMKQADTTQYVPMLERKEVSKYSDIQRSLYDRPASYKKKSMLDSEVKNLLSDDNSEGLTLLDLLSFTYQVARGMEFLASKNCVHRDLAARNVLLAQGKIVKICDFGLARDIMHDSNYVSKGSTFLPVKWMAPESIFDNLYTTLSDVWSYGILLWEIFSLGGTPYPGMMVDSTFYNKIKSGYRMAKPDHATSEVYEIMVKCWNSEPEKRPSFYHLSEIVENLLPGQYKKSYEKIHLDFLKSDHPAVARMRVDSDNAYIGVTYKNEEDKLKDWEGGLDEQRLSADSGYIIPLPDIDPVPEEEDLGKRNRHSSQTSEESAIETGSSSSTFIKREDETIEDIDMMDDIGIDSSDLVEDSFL
Protocol: as §2

[9] = tested on: MV4-11 (FLT3-ITD mutation) subcutaneous tumor; assay: In-vivo anti-tumor test, MV4-11 subcutaneous tumor model; conditions: orally administered once daily for 21 days
Protocol: as §1

**Q.** With `CC(C)n1c(Nc2cccnc2)nc2cnc(Nc3ccc(N4CCN(C)CC4)cc3)nc21` [Preparation Example 2] as the compound, how does the “effect on tumor (compared with the initial tumor)” value ([1]; 7.5 mg/kg) read?
**A.** tumor shrinkage

**Q.** What about the “effect on tumor (compared with the initial tumor)” value ([1]; 15 mg/kg) of the same compound?
**A.** tumor shrinkage

**Q.** What about the “effect on tumor (compared with the initial tumor)” value ([1]; 30 mg/kg) of the same compound?
**A.** almost complete tumor regression

**Q.** What about the “effect on growth of HCC827, dose dependence” value ([1]; 7.5, 15 and 30 mg/kg) of the same compound?
**A.** dose-dependently inhibit the growth

**Q.** What about the “compatibility of the active ingredient with various excipients” value [2] of the same compound?
**A.** good compatibility

**Q.** What about the “inhibiting the activity of kinase” value [3] of the same compound?
**A.** capable of inhibiting

**Q.** And the “inhibiting the activity of kinase” value [4]?
**A.** capable of inhibiting

**Q.** And the “inhibiting the activity of kinase” value [5]?
**A.** capable of inhibiting

**Q.** And the “inhibiting the activity of kinase” value [6]?
**A.** capable of inhibiting

**Q.** And the “inhibiting the activity of kinase” value [7]?
**A.** capable of inhibiting

**Q.** What about the “inhibiting the activity of kinase” value [8] of the same compound?
**A.** capable of inhibiting

**Q.** What about the “effect on tumor growth” value ([9]; 5 mg/kg) of the same compound?
**A.** completely inhibit the tumor growth

**Q.** And the “effect on tumor growth” value ([9]; 10 mg/kg)?
**A.** complete tumor regression

**Q.** And the “effect on tumor growth” value ([9]; 20 mg/kg)?
**A.** complete tumor regression
